# Measured values reported in patent US20230072854A1, “PARAXANTHINE-BASED BIOACTIVE COMPOSITION AND METHOD OF USE THEREOF” (Ingenious Ingredients, LP, priority 2020, published 2023).
# “Also recorded” adds a separate entry of the source.
# How the values were obtained:
# subjects = assay: Paraxanthine pre-workout, subject reports; format: in vivo, human; details: single subject, own words
# Experimental: Health subjects were administered paraxanthine and asked to report their experience. Subjects reported the following.
# volunteers = assay: Sternberg task test, double blind crossover vs placebo; format: in vivo, human; details: 200 mg; for Sternberg Mean Response Time: in ms (unit assumed)
# Text: In a double blind, randomized, crossover, and repeated measures manner, 13 volunteers (10 male, 3 female, average age 24±5 years, average body weight 72.91±19.30 kg, average height 169.96±11.84 cm, average BMI 24.80±3.71 kg/m^2) participated in this study. Participants limited ingestion of caffeine and other stimulants to normal use for 48-hours, fasted for 8-hours and reported to the lab and completed 4 different cognitive function tests to assess short-term attention and inhibitory control (Go-No Go Test), sustained attention (Vigilance Task Test), working memory (Sternberg Task Test) and cognitive flexibility (Berg-Washington Card Sorting Test). Once completed, the participants ingested either a placebo or 200 mg of paraxanthine (WGI, TX, USA) with 8 ounces of water. Participants repeated cognitive function tests 1, 2, 3, 4, 5, and 6 hours after ingestion of the supplement. After one-week participants repeated the experiment while consuming the other treatment.
# Data were analyzed by a General Linear Model multivariate and univariate analyses with repeated measures using body weight as a covariate. Data are expressed as means±standard deviations for the placebo (PLA) and Paraxanthine (PrX). Greenhouse-Geisser univariate p-levels are listed for time (T), weight×time (W×T) and group×time (G×T) interactions effects. Pairwise comparison is indicated by the following superscripts: †=[…] difference from baseline value; *=[…] difference from baseline; a=[…] difference between groups; b=[…] difference between groups. Eta2 vaules of […] are considered small, […] medium, and >0.14 are considered large.
# A test of working memory, ability to make use of short-term memory. A lower reaction time means participants can access their working memory faster. The Sternberg Task test is a widely used paradigm for studying short-term/working memory (STM/WM) involving cognitive control processes.
structure (smiles),measurement,setting,value
"Cn1c(=O)[nH]c2ncn(C)c2c1=O [paraxanthine, 1,7-dimethylxanthine]",experience reported by subject,subjects,"happier, better, more energy and focused; also recorded: phenomenal; also recorded: clean energy, but not stressed or stimmed; also recorded: it works"
same,letter length 2 present reaction time (FIG. 18),volunteers,significantly improved reaction times
same,letter length 4 absent reaction time (FIG. 16),volunteers,no significant differences over time or between treatments
same,letter length 4 present reaction time (FIG. 19),volunteers,"no significant differences over time or between treatments, with Paraxanthine showing greater improvements during hours 3-6"
same,letter length 6 absent reaction time (FIG. 17),volunteers,"no significant differences over time or between treatments, with Paraxanthine showing greater improvement during hours 3-5"
same,Letter Length 2: Absent Reaction Time (Millisecond),volunteers; Mean (SEM) over all hours,577.6 ± 27.1 Millisecond
same,Letter Length 2: Present Reaction Time (Millisecond),volunteers; Mean (SEM) over all hours,503.5 ± 17.8 Millisecond
same,Letter Length 4: Absent Reaction Time (Millisecond),volunteers; Mean (SEM) over all hours,741.3 ± 40.0 Millisecond
same,Letter Length 4: Present Reaction Time (Millisecond),volunteers; Mean (SEM) over all hours,617.9 ± 25.1 Millisecond
same,Letter Length 6: Absent Reaction Time (Millisecond),volunteers; Mean (SEM) over all hours,970.0 ± 55.7 Millisecond
same,Letter Length 6: Present Reaction Time (Millisecond),volunteers; Mean (SEM) over all hours,808.2 ± 40.2 Millisecond
same,Sternberg Mean Response Time,volunteers; Mean (SEM) over all hours,703.1 ± 32.4
same,"short-term/working memory, letter length 6 present reaction time",volunteers; after 4 and 5 hours,significantly increased short-term/working memory
same,Letter Length 2: Absent Reaction Time (Millisecond),volunteers; hour 0 (before ingestion),621.9 ± 154.3 Millisecond
same,Letter Length 2: Present Reaction Time (Millisecond),volunteers; hour 0 (before ingestion),541.1 ± 104.2 Millisecond
same,Letter Length 4: Absent Reaction Time (Millisecond),volunteers; hour 0 (before ingestion),748.7 ± 148.5 Millisecond
same,Letter Length 4: Present Reaction Time (Millisecond),volunteers; hour 0 (before ingestion),625.9 ± 100.6 Millisecond
same,Letter Length 6: Absent Reaction Time (Millisecond),volunteers; hour 0 (before ingestion),"1,012.5 ± 334.2 Millisecond"
same,Letter Length 6: Present Reaction Time (Millisecond),volunteers; hour 0 (before ingestion),841.6 ± 254.0 Millisecond
same,Sternberg Mean Response Time,volunteers; hour 0 (before ingestion),731.9 ± 163.0
same,Letter Length 2: Absent Reaction Time (Millisecond),volunteers; hour 1 after ingestion,596.7 Millisecond
same,Letter Length 2: Present Reaction Time (Millisecond),volunteers; hour 1 after ingestion,516.6 Millisecond
same,Letter Length 4: Absent Reaction Time (Millisecond),volunteers; hour 1 after ingestion,755.5 Millisecond
same,Letter Length 4: Present Reaction Time (Millisecond),volunteers; hour 1 after ingestion,642.9 Millisecond
same,Letter Length 6: Absent Reaction Time (Millisecond),volunteers; hour 1 after ingestion,986.5 Millisecond
same,Letter Length 6: Present Reaction Time (Millisecond),volunteers; hour 1 after ingestion,829.7 Millisecond
same,Sternberg Mean Response Time,volunteers; hour 1 after ingestion,721.3
same,Letter Length 2: Absent Reaction Time (Millisecond),volunteers; hour 2 after ingestion,579.7 Millisecond
same,Letter Length 2: Present Reaction Time (Millisecond),volunteers; hour 2 after ingestion,503.8 Millisecond
same,Letter Length 4: Absent Reaction Time (Millisecond),volunteers; hour 2 after ingestion,758.4 Millisecond
same,Letter Length 4: Present Reaction Time (Millisecond),volunteers; hour 2 after ingestion,614.7 Millisecond
same,Letter Length 6: Absent Reaction Time (Millisecond),volunteers; hour 2 after ingestion,"1,011.3 Millisecond"
same,Letter Length 6: Present Reaction Time (Millisecond),volunteers; hour 2 after ingestion,800.0 Millisecond
same,Sternberg Mean Response Time,volunteers; hour 2 after ingestion,711.3
same,letter length 2 absent reaction time (FIG. 15),"volunteers; hour 3, 4 and 5",trend towards improved reaction times
same,Letter Length 2: Absent Reaction Time (Millisecond),volunteers; hour 3 after ingestion,559.3 Millisecond
same,Letter Length 2: Present Reaction Time (Millisecond),volunteers; hour 3 after ingestion,497.1 Millisecond
same,Letter Length 4: Absent Reaction Time (Millisecond),volunteers; hour 3 after ingestion,762.3 Millisecond
same,Letter Length 4: Present Reaction Time (Millisecond),volunteers; hour 3 after ingestion,634.6 Millisecond
same,Letter Length 6: Absent Reaction Time (Millisecond),volunteers; hour 3 after ingestion,980.9 Millisecond
same,Letter Length 6: Present Reaction Time (Millisecond),volunteers; hour 3 after ingestion,830.6 Millisecond
same,Sternberg Mean Response Time,volunteers; hour 3 after ingestion,710.8
same,Letter Length 2: Absent Reaction Time (Millisecond),volunteers; hour 4 after ingestion,553.8 Millisecond
same,Letter Length 2: Present Reaction Time (Millisecond),volunteers; hour 4 after ingestion,488.3 Millisecond
same,Letter Length 4: Absent Reaction Time (Millisecond),volunteers; hour 4 after ingestion,701.3 Millisecond
same,Letter Length 4: Present Reaction Time (Millisecond),volunteers; hour 4 after ingestion,598.2 Millisecond
same,Letter Length 6: Absent Reaction Time (Millisecond),volunteers; hour 4 after ingestion,914.8 Millisecond
same,Letter Length 6: Present Reaction Time (Millisecond),volunteers; hour 4 after ingestion,778.1 Millisecond
same,Sternberg Mean Response Time,volunteers; hour 4 after ingestion,672.4
same,Letter Length 2: Absent Reaction Time (Millisecond),volunteers; hour 5 after ingestion,558.8 Millisecond
same,Letter Length 2: Present Reaction Time (Millisecond),volunteers; hour 5 after ingestion,490.3 Millisecond
same,Letter Length 4: Absent Reaction Time (Millisecond),volunteers; hour 5 after ingestion,717.5 Millisecond
same,Letter Length 4: Present Reaction Time (Millisecond),volunteers; hour 5 after ingestion,617.1 Millisecond
same,Letter Length 6: Absent Reaction Time (Millisecond),volunteers; hour 5 after ingestion,913.5 Millisecond
same,Letter Length 6: Present Reaction Time (Millisecond),volunteers; hour 5 after ingestion,761.8 Millisecond
same,Sternberg Mean Response Time,volunteers; hour 5 after ingestion,676.5
same,Letter Length 2: Absent Reaction Time (Millisecond),volunteers; hour 6 after ingestion,568.9 Millisecond
same,Letter Length 2: Present Reaction Time (Millisecond),volunteers; hour 6 after ingestion,483.8 Millisecond
same,Letter Length 4: Absent Reaction Time (Millisecond),volunteers; hour 6 after ingestion,742.2 Millisecond
same,Letter Length 4: Present Reaction Time (Millisecond),volunteers; hour 6 after ingestion,590.3 Millisecond
same,Letter Length 6: Absent Reaction Time (Millisecond),volunteers; hour 6 after ingestion,970.7 Millisecond
